Experimental data as given in US20240025849A1 (MAX DELBRÜCK-CENTRUM FÜR MOLEKULARE MEDIZIN IN DER …, priority 2020, published 2024).
Values joined by “and” are separate entries in the source; they are usually repeats but may differ in a detail not shown here. Identical values can stand only once.

What was measured:
[1] = test system: primary cultured neonatal astrocytes; test: Propidium iodide based proliferation and cell death assay in astrocytes; conditions: 2.5 μM C1, 48 hours, unstimulated
Protocol: Primary cultured neonatal astrocytes. The preparation of primary cultured neonatal astrocytes followed the preparation of the primary cultured neonatal microglia, described above. After the third shake off, the remaining astrocytes were trypsinated, washed with PBS and seeded into a 96 well plate (10 000 cells/well, 200 μL medium per well).
Propidium iodide based proliferation and cell death assay. To determine the relative proliferation and cell death, the cells were seeded into a […], let adhere for 24 hours and afterwards treated for additional 48 hours. The supernatant was removed, and the cells were washed carefully with 37° C. HBSS once. 1/200 propidium iodide PBS solution was added and the cells were incubated for 10 minutes. The intensity of the propidium iodide signal of the dead cells was measured using a microplate reader. Afterwards, all cells were killed with a 10 min incubation of 10% DMSO and the propidium iodide signal of all cells was measured. All signals were corrected for the background noise, subtracting the blank signal. The percentage of dead cells was calculated by dividing the dead-cell-signal by the all-cell-signal. Proliferation was calculated as a relative value to the plain medium control.

[2] = Intravenous tissue distribution study in mice; type: in vivo, mouse
[3] = test system: bone marrow derived macrophages; test: NO release in bone marrow derived macrophages, Griess assay; type: cell-based, mouse; conditions: for NO release: 0.25 μM C1; for NO release, % of positive control: 2.5 μM C1
Protocol: Primary cultured macrophages. Bone marrow macrophages were isolated from C57BL/6 adult mice (P49-56) as previously described (Marim et al., 2010). In summary, mice were killed by cervical dislocation and the femurs were removed by cutting through the tibia near the pelvic bone and below the knee. Any muscle connected to the bone was carefully removed. Ice cold sterile PBS was slowly flushed through the bone and the contents were collected in a sterile 15 mL polypropylene tube on ice. After centrifugation for 10 min at 200 g at 4° C., red blood cells were lysed by adding 3-10 mL ammonium chloride solution. After a 3-5 min recovery period, the suspension was centrifuged for 10 min at 200 g at 4° C. and the supernatant was removed. Cells were plated in a 10 cm dish with plain medium containing 10 ng/mL M-CSF and cultured for 7 days to allow differentiation. 50 000 cells were plated with 200 μL medium per well in a 96 well plate.
(§1) Griess assay. Cells were seeded according to the protocols described above, after compounds and stimuli were added, 100 μl of supernatant was transferred into a new 96 well plate and 100 μl freshly mixed Griess reagent were added. Griess reagent was composed of reagent A (100 mg Naphthylethylene in 50 ml aqua dest.) and reagent B (1 g Sulfanilamide, […] H3PO4 (85%) in 44 mL aqua dest.) mixed 1:1. The solution was carefully mixed and the absorbance was determined in a microplate reader at a wavelength of 550 nm.
Microglia and macrophages share many of their immune properties, therefore the inventors evaluated the impact of C1 on the release of NO and the pro-inflammatory cytokines IL1β, IL6, and TNFα on bone marrow derived macrophages (Amici et al., 2017; Li and Barres, 2017). Bone marrow derived macrophages were isolated from adult mice and pre-treated for 1 hour with C1 (0.025 μM, 0.25 μM, or 2.5 μM), its corresponding concentration of DMSO (1.25×10-5, 12.5×10-5, or 125×10-5 v/v), or plain medium before a stimulus was added. The NO release was measured after stimulation with either 1 μg/ml LPS for 48 hours (FIG. 2-1A), 100 μg/mL PolyIC for 24 hours (FIG. 2-1B) or 100 ng/ml IFNγ for 48 hours (FIG. 2-1C). […] DMSO had no effect on the NO release in bone marrow derived macrophages stimulated with LPS or PolyIC (FIGS. 2-1A and B). However, it reduced the IFNγ induced NO release in these cells independently of the applied dose (1.25×10-5 v/v: 85%, p<0.0043; 12.5×10-5 v/v: 83%, p<0.0016; 125×10-5 v/v: 85%, p<0.0046, FIG. 2-1C), similar to the effect observed in microglia when stimulated with IFNγ (FIG. 2A).

[4] = test system: primary cultured neonatal microglia; test: IFNγ induced NO release, Griess assay; type: cell-based, mouse; conditions: for level of NO, % of its initial concentration (stimulated control): 100 ng/ml IFNγ 48 hours
Protocol: Primary cultured neonatal microglia. For preparation of cultured neonatal microglia, P0-P3 mice were used. 10 brains were extracted, meninges and cerebellum were removed and put on ice with Hank's balanced salt solution (HBSS). The dissected brains were washed 3 times before adding 400 μL trypsin (0.1 mg/L) and DNAse (5 μg/L) in phosphate buffered saline (PBS). After 2 min of incubation with this solution, the reaction was blocked by adding plain medium. After removal of the medium, 1 mg DNAse was added and the cells were mechanically dissociated, with a Pasteur pipette followed by a glass pipette. The cells were centrifuged for 10 min at 129 g at 4° C. The supernatant was discarded. The pellet was resuspended in plain medium and plated (2.5 brains/flask) in Poly-L-Lysine coated flasks. The cells were washed after 2 days with PBS and incubated for another 7 days in plain medium. Afterwards the medium was replaced by plain medium with 33% L929 conditioned medium. After 2 days, cells were harvested by shaking them for 30 min at 150 rpm. The supernatant was centrifuged for 10 min at 129 g at 4° C. The cells were plated into a 96 well plate (100 000 cells/well, 200 μL medium per well). This procedure could be repeated 2 times with a 2 day interval.
as §1
In order to test whether C1 decreases NO release induced by other stimulation agents besides LPS which is mimicking a bacterial infection, the inventors used IFNγ to mimic a Th1 cell response (Yau et al., 2016) and PolyIC to mimic an anti-viral response (Jiang and Pisetsky, 2006). Given that our aim is to determine the compound's effect on already stimulated microglia (LPS, IFNγ, and PolyIC), each individual experiment is normalized to its stimulated control.

In the case of `COc1ccc(NC(=O)C(NC(=O)C2CCCN2C(=O)OCc2ccccc2)c2ccc(OC)cc2)cc1` (centres unmarked) [C1], the “astrocytes cell death rate” value [1] is reported as “no significant effect”, the proliferation of astrocytes [1] is reported as “did not show an effect” and the “passage of the blood brain barrier” value ([2]; 5 mg/kg intravenous) is reported as “passes the blood brain barrier”. The concentration in brain ([2]; 30 minutes after 5 mg/kg intravenous) was 1 μM/g tissue, the concentration in brain ([2]; 4 hours after 5 mg/kg intravenous) was 2.4 nM/g tissue and the NO release ([3]; 1 μg/mL LPS 48 hours) was “reduced the NO release significantly”. For the same molecule, the NO release ([3]; 100 μg/mL PolyIC 24 hours) was “significant decrease”, the “NO release, % of positive control” value ([3]; 100 ng/mL IFNγ 48 hours) was 18% and the “NO release, % of positive control” value ([3]; 100 μg/mL PolyIC 24 hours) was 15.01±10.32% and 15%. For the same molecule, the “NO release, dose dependence” value ([3]; 0.025, 0.25, 2.5 μM C1, LPS, PolyIC or IFNγ) was “reduced the NO release in a dose dependent manner”, the “level of NO, % of its initial concentration (stimulated control)” value (from here on “level of NO, % … (stimulated control)”) ([4]; 25 nM C1) was 84% and the “level of NO, % … (stimulated control)” value ([4]; 250 nM C1) was 41%. For the same molecule, the “level of NO, % … (stimulated control)” value ([4]; 2.5 μM C1) was 22% and the “NO release upon stimulation with IFNγ” value ([4]; pre-treatment with C1) was “dose dependent decrease”.
